Source: patent publication US12577241B2, “Polycyclic pyridopyrazine derivative” (Shionogi & Co., Ltd., priority 2019, dated 2026)

Tests used:
HIV [1] = test: Test Example 1: Anti-HIV activity (MT-4 cells, CellTiter-Glo); format: cell-based; conditions: Human immunodeficiency virus 1, MT4, 96 h, 4 days culture, CellTiter-Glo luminescence, read-out: EC50 (50% HIV inhibitory concentration)
Protocol: Test Example 1: Anti-HIV Activity
Serial dilutions of a test sample were prepared in a 384-well microplate by a dispensing machine. 6.25×10^4 cells/mL of a MT-4 cell suspension was dispensed at 20 μL/well to the plate containing the test sample. Then, an HIV virus solution was dispensed at 20 μL/well. The plate was mixed with a plate mixer and cultured for 4 days in a CO2 incubator. On day 4 of culture, CellTiter-Glo or CellTiter-Glo 2.0 was dispensed at 20 μL/well. The plate was reacted while being stirred with the plate mixer at room temperature for about 15 minutes. The amount of luminescence of the plate after the reaction was measured with a microplate reader. A 50% HIV inhibitory concentration (EC50) was determined from a concentration-dependent curve using the following 4 parameter logistic curve fitting model. y=A+((B−A)/(1+((C/x)^D))) • A=minimum rate of inhibition (negative control, 0%) • B=maximum rate of inhibition (positive control, 100%) • C=compound concentration at an inflection point • D=slope coefficient • x=compound concentration • y=rate of inhibition (%) (Results)

Nav 1.5 channel = biological target: T1, Nav 1.5 channel (Homo sapiens, UniProt Q14524); test: Test Example 13: Nav test; format: cell-based; conditions: HEK cells expressing Nav 1.5 channel, INa, whole cell patch clamp, relative to vehicle
T1 construct: expressed in transfected cells; host or cells: HEK cells
Description: Test Example 13: Nav Test
For the purpose of assessing proarrhythmic risk of the compound of the present invention, effects of the compound of the present invention on Na^+ current (INa), which plays an important role in the myocardial depolarization process, was studied using HEK cells expressing Voltage gated sodium channel (Nav 1.5 channel) encoded by SCNSA gene.
After a cell was retained at a membrane potential of −100 mV by the whole cell patch clamp method using an automated patch clamp system (QPatch; Sophion Bioscience A/S), INa induced by depolarization pulse stimulation at −10 mV for 20 milliseconds was recorded. An extracellular fluid (NaCl: 145 mmol/L, KCl 4 mmol/L, CaCl2: 2 mmol/L, MgCl2: 1 mmol/L, glucose: 10 mmol/L, HEPES (4-(2-hydroxyethyl)-1-piperazineethanesulfonic acid): 10 mmol/L, tetraethylammonium hydroxide (TEA): 10 mmol/L, pH=7.4) adjusted to 0.3% with dimethyl sulfoxide was used as a vehicle to apply the vehicle and the extracellular fluid containing the compound of the present invention dissolved at a concentration of interest to the cells under conditions of room temperature for 5 minutes or longer. From the obtained INa, the absolute value of the maximum peak current based on the current value at the membrane potential where the cells have been kept was measured using analytical software (QPatch Assay software; Sophion Bioscience A/S). The ratio of the maximum peak current at the time of applying the compound of the present invention to the maximum peak current at the time of applying the vehicle and the electric charge amount at the time of applying the compound of the present invention with respect to the electric charge amount at the time of applying vehicle were calculated, and the influence of the compound of the present invention on INa was evaluated.

[2] = Test Example 6: Clearance evaluation test; format: in vivo, Rats; conditions: plasma, 1 umol/kg, rat, intravenous 1 μmol/kg; for half-life: read-out: Elimination half-life (t½) (converted); for clearance: read-out: Total body clearance (CLtot)
Description: Test Example 6: Clearance Evaluation Test Experimental Material and Method (1) Animals used: Rats were used. (2) Breeding conditions: The rats were allowed to freely take solid food and sterilized tap water. (3) Dose and grouping setting: A predetermined dose was intravenously administered. Groups were set as follows: Intravenous administration: 1 μmol/kg (n=2) (4) Preparation of dosing solution: The test sample was solubilized using a solvent of dimethyl sulfoxide/propylene glycol=1/1 and administered. (5) Administration method: The test sample was administered to the tail vein through a syringe with an injection needle. (6) Evaluation item: Blood was collected over time, and the concentration of the compound of the present invention in plasma was measured using LC/MS/MS. (7) Statistical analysis: Total body clearance (CLtot) and elimination half-life (t½) were calculated as to change in the concentration of the compound of the present invention in plasma by the moment analysis method.

[3] = system: HIV mutant strains (E92Q/E138T/G140S/Q148H); test: Test Example 2: Resistance evaluation test (HeLa-CD4 cells, wild and mutant strain); format: cell-based; conditions: 3 days
Protocol: Test Example 2: Resistance Evaluation Test
Serial dilutions of a test sample were prepared in a 96-well microplate (50 μL/well). 2.5×10^5 cells/mL of a HeLa-CD4 cell suspension was dispensed at 100 μL/well to the plate containing the test sample. Then, an HIV virus solution (wild strain and mutant strain) was dispensed at 50 μL/well. The plate was mixed with a plate mixer and cultured for 3 days in a CO2 incubator. The culture supernatant in each well was removed by suction. A cell lysis buffer was dispensed at 100 μL/well, and the plate was frozen in a freezer (−80° C.). The plate frozen in a freezer was thawed at room temperature, then mixed with a plate mixer, and centrifuged at 1,200 rpm for 5 minutes. Beta-Glo Reagent was dispensed at 20 μL/well to a 384-well microplate, 2 μL of the supernatant of each well (diluted as necessary) of the plate after centrifugation was added, and then the mixture was reacted at room temperature for about 30 minutes. The amount of luminescence of the plate after the reaction was measured with a microplate reader. A 50% HIV inhibitory concentration (EC50) was determined from a concentration-dependent curve using the following 4 parameter logistic curve fitting model. y=A+((B−A)/(1+((C/x)^D))) • A=minimum rate of inhibition (negative control, 0%) • B=maximum rate of inhibition (positive control, 100%) • C=compound concentration at an inflection point • D=slope coefficient • x=compound concentration • y=rate of inhibition (%)
The degree of resistance (fold change (FC)) of each mutant strain was calculated according to the following expression. • FC=EC50 of the mutant strain/EC50 of the wild strain (Results)

HIV [4] = test: Test Example 14: Anti-HIV activity evaluation test in presence of human serum protein; format: cell-based; conditions: MT-4 cells; PS=4×(EC50 with 25% human serum protein/EC50 without); 100% extrapolated value
Protocol: Test Example 14: Anti-HIV Activity Evaluation Test in Presence of Human Serum Protein
Serial dilutions of a test sample were prepared in a 384-well microplate by a dispensing machine. A human serum protein solution (human serum protein concentration 50%) was dispensed at 20 μL/well to a 384-well microplate containing the test sample and left to stand still at room temperature for 1 hour. A culturing solution was dispensed at 20 μL/well to a plate for the absence of serum. 1 mL of 3.0×10^6 cells/mL of MT-4 cells and a 300 μL HIV virus solution were mixed and reacted at 37° C. for 1 hour. After the reaction, the cell suspension was centrifuged to discard the supernatant, the infected cells were dispersed in 40 mL of a culturing solution and the resultant solution was dispensed at 20 μL/well to a 384-well microplate containing the test sample and the human serum protein (human serum protein final concentration: 25%). The plate was mixed with a plate mixer and cultured for 4 days in a CO2 incubator. On day 4 of culture, CellTiter-Glo or CellTiter-Glo 2.0 was dispensed at 20 μL/well. The plate was reacted while being stirred with the plate mixer at room temperature for about 15 minutes. The amount of luminescence of the plate after the reaction was measured with a microplate reader. […]
The potency shift (PS) was calculated on the basis of the following calculation formula. […]

[5] = Test Example 7: Metabolism stability test; format: in vitro ADME; conditions: human liver microsomes 0.5 mg protein/mL, 30 minutes, 37° C., NADPH, compound concentration 0.5 μmol/L
Protocol: Test Example 7: Metabolism Stability Test Commercially available pooled human liver microsomes were reacted with the compound of the present invention for a given time. A residual rate was calculated by the comparison between the reacted sample and an unreacted sample to evaluate the degree at which the compound of the present invention was metabolized in the liver. The compound was reacted at 37° C. for 0 minutes or 30 minutes in the presence of 1 mmol/L NADPH in 0.2 mL of a buffer solution (50 mmol/L Tris-HCl pH 7.4, 150 mmol/L potassium chloride, and 10 mmol/L magnesium chloride) containing 0.5 mg protein/mL of the human liver microsomes (oxidative reaction). After the reaction, 50 μL of the reaction solution was added to 100 μL of a solution of methanol/acetonitrile=1/1 (v/v), and the mixture was mixed and centrifuged at 3000 rpm for 15 minutes. The compound of the present invention in the centrifugation supernatant was quantified by LC/MS/MS or solid-phase extraction (SPE)/MS. The amount of the compound of the present invention remaining after the reaction was calculated with the amount of the compound at 0 minutes of the reaction defined as 100%.

CYP3A4 = biological target: T2, CYP3A4 (Homo sapiens, UniProt P08684); test: Test Example 4: CYP3A4 (MDZ) MBI test; format: in vitro ADME; conditions: pooled human liver microsomes, midazolam 1-hydroxylation, IC 0 min preincubation/IC 30-min preincubation
T2 construct: pooled human liver microsomes, 0.5 mg/mL for the prereaction; from tissue; host or cells: pooled human liver microsomes
Protocol: Test Example 4: CYP3A4 (MDZ) MBI Test
This test as to the inhibition of CYP3A4 by the compound of the present invention is to evaluate mechanism based inhibition (MBI) ability from enhancement in inhibitory effect, caused by a metabolism reaction, of the compound of the present invention. CYP3A4 inhibition was evaluated using pooled human liver microsomes by 1-hydroxylation reaction of midazolam (MDZ) as a marker reaction. […]
The pooled human liver microsomes and a solution of the compound of the present invention were added according to the recipe of the prereaction described above into a K-Pi buffer solution (pH 7.4) as a prereaction solution in a 96-well plate. […] After centrifuged at 3000 rpm for 15 minutes, 1-hydroxymidazolam in the supernatant was quantified by LC/MS/MS.
Only a solvent DMSO used for dissolving the compound was added to the reaction solution instead of the compound of the present invention, and the mixture was used as a control (100%). Remaining activity (%) at the time of the addition of the compound of the present invention at each concentration was calculated, and IC was calculated by inverse estimation based on a logistic model using the concentrations and the rates of suppression. A shifted IC value is calculated from IC from the 0 min preincubation/IC from the 30-min preincubation. […]

T1 sequence (Q14524 whole entry): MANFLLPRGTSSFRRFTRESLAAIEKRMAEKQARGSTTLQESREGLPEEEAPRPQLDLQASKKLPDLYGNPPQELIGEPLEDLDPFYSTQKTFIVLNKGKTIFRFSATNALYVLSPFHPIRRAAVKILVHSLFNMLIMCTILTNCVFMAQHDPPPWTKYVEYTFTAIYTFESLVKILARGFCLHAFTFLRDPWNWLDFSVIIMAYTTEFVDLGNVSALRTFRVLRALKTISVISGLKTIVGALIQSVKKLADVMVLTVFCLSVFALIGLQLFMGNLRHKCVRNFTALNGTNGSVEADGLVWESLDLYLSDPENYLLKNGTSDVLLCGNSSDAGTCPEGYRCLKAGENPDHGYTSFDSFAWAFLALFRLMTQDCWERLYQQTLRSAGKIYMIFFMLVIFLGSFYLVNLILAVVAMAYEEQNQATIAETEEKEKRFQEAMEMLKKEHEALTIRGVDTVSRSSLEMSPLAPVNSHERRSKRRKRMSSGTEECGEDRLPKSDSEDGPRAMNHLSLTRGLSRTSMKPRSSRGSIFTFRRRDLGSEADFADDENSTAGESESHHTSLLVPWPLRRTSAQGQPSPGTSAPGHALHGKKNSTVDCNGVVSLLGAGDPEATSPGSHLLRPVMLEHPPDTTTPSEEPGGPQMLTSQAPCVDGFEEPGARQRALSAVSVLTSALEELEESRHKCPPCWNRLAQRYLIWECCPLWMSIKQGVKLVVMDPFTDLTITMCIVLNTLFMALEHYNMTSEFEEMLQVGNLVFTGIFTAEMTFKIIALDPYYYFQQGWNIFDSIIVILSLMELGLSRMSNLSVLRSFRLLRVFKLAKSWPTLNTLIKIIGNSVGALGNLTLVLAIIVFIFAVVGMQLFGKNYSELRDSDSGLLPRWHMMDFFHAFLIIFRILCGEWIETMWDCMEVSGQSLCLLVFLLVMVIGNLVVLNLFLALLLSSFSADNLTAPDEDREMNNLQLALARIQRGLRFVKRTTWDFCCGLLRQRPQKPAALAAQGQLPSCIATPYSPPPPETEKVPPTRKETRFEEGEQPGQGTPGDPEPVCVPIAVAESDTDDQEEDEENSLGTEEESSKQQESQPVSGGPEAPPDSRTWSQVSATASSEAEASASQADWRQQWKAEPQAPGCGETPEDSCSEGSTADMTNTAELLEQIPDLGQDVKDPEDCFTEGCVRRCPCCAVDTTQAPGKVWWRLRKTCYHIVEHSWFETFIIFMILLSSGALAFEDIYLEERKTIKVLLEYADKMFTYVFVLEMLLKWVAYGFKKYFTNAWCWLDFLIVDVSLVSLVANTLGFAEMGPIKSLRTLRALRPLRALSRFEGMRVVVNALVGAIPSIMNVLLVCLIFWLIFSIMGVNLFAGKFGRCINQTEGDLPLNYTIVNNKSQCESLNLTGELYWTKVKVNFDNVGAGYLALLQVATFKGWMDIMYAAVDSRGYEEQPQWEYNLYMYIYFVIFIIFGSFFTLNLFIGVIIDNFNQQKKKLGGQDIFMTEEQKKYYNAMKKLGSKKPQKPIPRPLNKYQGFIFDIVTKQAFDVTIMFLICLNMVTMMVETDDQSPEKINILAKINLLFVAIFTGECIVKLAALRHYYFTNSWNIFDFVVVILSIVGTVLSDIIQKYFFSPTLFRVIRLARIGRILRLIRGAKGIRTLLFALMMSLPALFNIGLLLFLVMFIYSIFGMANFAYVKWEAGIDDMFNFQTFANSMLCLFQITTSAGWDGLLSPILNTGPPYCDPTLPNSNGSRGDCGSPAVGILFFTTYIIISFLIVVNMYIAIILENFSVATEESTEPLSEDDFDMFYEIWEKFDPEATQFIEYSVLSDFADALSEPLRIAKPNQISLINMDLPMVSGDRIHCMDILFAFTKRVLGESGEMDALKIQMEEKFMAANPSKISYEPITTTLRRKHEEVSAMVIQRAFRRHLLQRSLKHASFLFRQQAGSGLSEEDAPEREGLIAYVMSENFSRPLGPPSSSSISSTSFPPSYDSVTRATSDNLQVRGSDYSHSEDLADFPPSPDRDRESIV
T2 sequence (P08684 whole entry): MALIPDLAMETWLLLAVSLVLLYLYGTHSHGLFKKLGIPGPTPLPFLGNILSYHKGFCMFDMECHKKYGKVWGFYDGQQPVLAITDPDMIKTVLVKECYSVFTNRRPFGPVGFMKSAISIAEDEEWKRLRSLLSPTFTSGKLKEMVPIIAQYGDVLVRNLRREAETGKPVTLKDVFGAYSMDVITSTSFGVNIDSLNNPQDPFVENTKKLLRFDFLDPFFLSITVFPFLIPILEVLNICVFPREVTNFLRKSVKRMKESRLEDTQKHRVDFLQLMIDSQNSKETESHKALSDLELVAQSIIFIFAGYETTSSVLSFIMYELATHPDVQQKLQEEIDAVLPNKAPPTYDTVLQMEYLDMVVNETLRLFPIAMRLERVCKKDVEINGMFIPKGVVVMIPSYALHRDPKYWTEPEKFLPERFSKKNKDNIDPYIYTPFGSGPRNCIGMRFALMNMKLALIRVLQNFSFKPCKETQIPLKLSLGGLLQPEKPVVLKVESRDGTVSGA

Row | Structure (SMILES) | EC50 (HIV [1]) [nM] | electric charge amount increase rate (Nav 1.5 channel) [%] | maximum current amount increase rate (Nav 1.5 channel) [%] | half-life [2] [h] | clearance [2] [mL/h/kg] | FC (fold change, degree of resistance) = EC50 of the mutant strain/EC50 of the wild strain [3] | Potency shift (PS) in the presence of human serum protein (HIV [4]) | Remaining rate [5] [%] | Shifted IC grade (mechanism based inhibition) (CYP3A4)
1 | CCN1C(=O)c2c(O)c(=O)c(-c3nnc(Cc4ccc(F)cc4F)s3)cn2[C@H]2CCCC[C@H]21 [Compound I-017] | 4.2 | 133 | 95.6 | 15.3 | 4.27 | 6.0 |  |  | 
2 | CCN1C(=O)c2c(O)c(=O)c(C(=O)NCc3cccc(Cl)c3F)cn2[C@@H]2[C@H]1CCCC2(F)F [Compound I-005] | 1 |  |  | 10.9 | 7.02 | 6.7 | 104 |  | 
3 | CCN1C(=O)c2c(O)c(=O)c(-c3nnc(Cc4ccc(F)cc4F)s3)cn2[C@H]2CCC[C@H]21 [Compound I-020] | 5 |  |  |  |  | 7.7 | 29 | 74.6 | 
4 | CCN1C(=O)c2c(O)c(=O)c(-c3nnc(Cc4ccc(F)cc4F)s3)cn2[C@@H]2[C@H]1CCCC2(F)F [Compound I-022] | 5.3 | 137 | 93.1 |  |  |  |  |  | (−) (shifted IC of 1.0 or less is graded as negative (−))
5 | CCN1C(=O)c2c(O)c(=O)c(C(=O)NCc3nccc(Cl)c3F)cn2[C@H]2CCCC[C@H]21 [Compound I-003] | 3.9 |  |  |  |  |  |  | 91.7 | 
